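Dose response: 5 concentrations. Exposure: 48 h. Format: 96-well plates. Endpoint: linear interpolation; highest concentration if not reached. At the GI50, growth is halved. TGI denotes the concentration required for complete inhibition of growth.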
Experiments:
Assay in all cases: NCI-60 cell line screen, 48 h
EKVX NSCLC = tested on: EKVX NSCLC
BT-549 breast = tested on: BT-549 breast
SW-620 colon = tested on: SW-620 colon
NCI-H522 lung = tested on: NCI-H522 lung
UACC-62 melanoma = tested on: UACC-62 melanoma
SNB-75 CNS = tested on: SNB-75 CNS
SK-MEL-28 melanoma = tested on: SK-MEL-28 melanoma
LOX IMVI melanoma = tested on: LOX IMVI melanoma
SF-539 CNS = tested on: SF-539 CNS
UACC-257 melanoma = tested on: UACC-257 melanoma
A549 NSCLC = tested on: A549 NSCLC
HT29 colon = tested on: HT29 colon
ACHN renal = tested on: ACHN renal
HCT-15 colon = tested on: HCT-15 colon
M14 melanoma = tested on: M14 melanoma
HCT-116 colon = tested on: HCT-116 colon
RXF 393 renal = tested on: RXF 393 renal
SN12C renal = tested on: SN12C renal
MCF7 breast = tested on: MCF7 breast
SK-OV-3 ovarian = tested on: SK-OV-3 ovarian
786-0 renal = tested on: 786-0 renal
MDA-MB-435 = tested on: MDA-MB-435
OVCAR-8 ovarian = tested on: OVCAR-8 ovarian
A498 renal = tested on: A498 renal
CCRF-CEM leukemia = tested on: CCRF-CEM leukemia
SF-295 CNS = tested on: SF-295 CNS
DU-145 prostate = tested on: DU-145 prostate
RPMI-8226 leukemia = tested on: RPMI-8226 leukemia
K-562 leukemia = tested on: K-562 leukemia
NCI/ADR-RES ovarian = tested on: NCI/ADR-RES ovarian
MALME-3M melanoma = tested on: MALME-3M melanoma
SK-MEL-2 melanoma = tested on: SK-MEL-2 melanoma
HOP-62 NSCLC = tested on: HOP-62 NSCLC
CAKI-1 renal = tested on: CAKI-1 renal
SR leukemia = tested on: SR leukemia
U251 CNS = tested on: U251 CNS
OVCAR-5 ovarian = tested on: OVCAR-5 ovarian
NCI-H23 lung = tested on: NCI-H23 lung
HOP-92 NSCLC = tested on: HOP-92 NSCLC
IGROV1 ovarian = tested on: IGROV1 ovarian
NCI-H460 lung = tested on: NCI-H460 lung
KM12 colon = tested on: KM12 colon
NCI-H226 lung = tested on: NCI-H226 lung
OVCAR-3 ovarian = tested on: OVCAR-3 ovarian
HL-60(TB) leukemia = tested on: HL-60(TB) leukemia
OVCAR-4 ovarian = tested on: OVCAR-4 ovarian
UO-31 renal = tested on: UO-31 renal
SF-268 CNS = tested on: SF-268 CNS
HCC-2998 colon = tested on: HCC-2998 colon
COLO 205 colon = tested on: COLO 205 colon
T-47D breast = tested on: T-47D breast
PC-3 prostate = tested on: PC-3 prostate
MDA-MB-231 breast = tested on: MDA-MB-231 breast
MOLT-4 leukemia = tested on: MOLT-4 leukemia
SNB-19 CNS = tested on: SNB-19 CNS
HS 578T breast = tested on: HS 578T breast
SK-MEL-5 melanoma = tested on: SK-MEL-5 melanoma
TK-10 renal = tested on: TK-10 renal

CC(=O)Nc1ccc(CC[C@H]2CCC/C=C/[C@@H]3C[C@H](O)C[C@H]3[C@H](O)/C=C/C(=O)O2)cc1
GI50 (EKVX NSCLC): 191 nM | TGI (EKVX NSCLC): 4330 nM | GI50 (BT-549 breast): 182 nM | TGI (BT-549 breast): > 100000 nM | GI50 (SW-620 colon): 185 nM | TGI (SW-620 colon): 597 nM | GI50 (NCI-H522 lung): 261 nM | TGI (NCI-H522 lung): 654 nM | GI50 (UACC-62 melanoma): 43.4 nM | TGI (UACC-62 melanoma): > 92400 nM | GI50 (SNB-75 CNS): 44.6 nM | TGI (SNB-75 CNS): > 94700 nM | GI50 (SK-MEL-28 melanoma): 36.2 nM | TGI (SK-MEL-28 melanoma): 197 nM | GI50 (LOX IMVI melanoma): 91.2 nM | TGI (LOX IMVI melanoma): 405 nM | GI50 (SF-539 CNS): 423 nM | TGI (SF-539 CNS): > 100000 nM | GI50 (UACC-257 melanoma): 59.6 nM | TGI (UACC-257 melanoma): > 100000 nM | GI50 (A549 NSCLC): 309 nM | TGI (A549 NSCLC): > 100000 nM | GI50 (HT29 colon): 119 nM | TGI (HT29 colon): 951 nM | GI50 (ACHN renal): 375 nM | TGI (ACHN renal): > 47200 nM | GI50 (HCT-15 colon): 471 nM | TGI (HCT-15 colon): > 100000 nM | GI50 (M14 melanoma): 153 nM | TGI (M14 melanoma): > 100000 nM | GI50 (HCT-116 colon): 184 nM | TGI (HCT-116 colon): 389 nM | GI50 (RXF 393 renal): 35.9 nM | TGI (RXF 393 renal): 150 nM | GI50 (SN12C renal): 333 nM | TGI (SN12C renal): > 100000 nM | GI50 (MCF7 breast): 157 nM | TGI (MCF7 breast): 338 nM | GI50 (SK-OV-3 ovarian): 66.7 nM | TGI (SK-OV-3 ovarian): > 100000 nM | GI50 (786-0 renal): 25.2 nM | TGI (786-0 renal): 83.8 nM | GI50 (MDA-MB-435): 151 nM | TGI (MDA-MB-435): > 100000 nM | GI50 (OVCAR-8 ovarian): 82.1 nM | TGI (OVCAR-8 ovarian): > 100000 nM | GI50 (A498 renal): 16 nM | TGI (A498 renal): 47.5 nM | GI50 (CCRF-CEM leukemia): 320 nM | TGI (CCRF-CEM leukemia): > 100000 nM | GI50 (SF-295 CNS): 201 nM | TGI (SF-295 CNS): > 100000 nM | GI50 (DU-145 prostate): 366 nM | TGI (DU-145 prostate): 4200 nM | GI50 (RPMI-8226 leukemia): 222 nM | TGI (RPMI-8226 leukemia): 591 nM | GI50 (K-562 leukemia): 392 nM | TGI (K-562 leukemia): > 100000 nM | GI50 (NCI/ADR-RES ovarian): 819 nM | TGI (NCI/ADR-RES ovarian): > 100000 nM | GI50 (MALME-3M melanoma): 257 nM | TGI (MALME-3M melanoma): 573 nM | GI50 (SK-MEL-2 melanoma): 313 nM | TGI (SK-MEL-2 melanoma): 963 nM | GI50 (HOP-62 NSCLC): 281 nM | GI50 (CAKI-1 renal): 361 nM | TGI (CAKI-1 renal): > 21200 nM | GI50 (SR leukemia): 215 nM | GI50 (U251 CNS): 304 nM | TGI (U251 CNS): > 100000 nM | GI50 (OVCAR-5 ovarian): 346 nM | TGI (OVCAR-5 ovarian): > 66400 nM | GI50 (NCI-H23 lung): 188 nM | TGI (NCI-H23 lung): 759 nM | GI50 (HOP-92 NSCLC): 217 nM | TGI (HOP-92 NSCLC): 791 nM | GI50 (IGROV1 ovarian): 88.7 nM | TGI (IGROV1 ovarian): 237 nM | GI50 (NCI-H460 lung): 365 nM | TGI (NCI-H460 lung): > 100000 nM | GI50 (KM12 colon): 98.3 nM | TGI (KM12 colon): 315 nM | GI50 (NCI-H226 lung): 66.7 nM | TGI (NCI-H226 lung): 295 nM | GI50 (OVCAR-3 ovarian): 217 nM | TGI (OVCAR-3 ovarian): 533 nM | GI50 (HL-60(TB) leukemia): 337 nM | TGI (HL-60(TB) leukemia): 3950 nM | GI50 (OVCAR-4 ovarian): 105 nM | GI50 (UO-31 renal): 316 nM | GI50 (SF-268 CNS): 59.4 nM | TGI (SF-268 CNS): > 100000 nM | GI50 (HCC-2998 colon): 78.1 nM | GI50 (COLO 205 colon): 139 nM | TGI (COLO 205 colon): 283 nM | GI50 (T-47D breast): 290 nM | GI50 (PC-3 prostate): 353 nM | TGI (PC-3 prostate): > 100000 nM | GI50 (MDA-MB-231 breast): 82.6 nM | TGI (MDA-MB-231 breast): 252 nM | GI50 (MOLT-4 leukemia): 345 nM | TGI (MOLT-4 leukemia): 2820 nM | GI50 (SNB-19 CNS): 231 nM | TGI (SNB-19 CNS): > 100000 nM | GI50 (HS 578T breast): 67.4 nM | TGI (HS 578T breast): > 93700 nM | GI50 (SK-MEL-5 melanoma): 18.8 nM | TGI (SK-MEL-5 melanoma): 34.8 nM | GI50 (TK-10 renal): 172 nM | TGI (TK-10 renal): 1060 nM
